Data published in patent publication US7932277B2, “Peptide inhibitors of hepatitis C virus replication” (InterMune, Inc., priority 2007, dated 2011).
Like-named read-outs stand apart in the source and are kept apart here.

Legend:
[1] = biological target: T1, NS3/NS4A-2 (full-length HCV NS3 protease complexed with NS4A-2) (Hepatitis C virus genotype 1a, UniProt P27958); assay: NS3 inhibition assay (NS3-NS4 protease assay); type: biochemical; conditions: recombinant full-length NS3/NS4A-2, RETS1 substrate, kinetic fluorescence read; read-out: NS3-NS4 IC50
T1 construct: Recombinant E. coli or Baculovirus full-length NS3; host or cells: E. coli or baculovirus (insect cells)
T1 sequence (P27958 1027-1657, one chain of several): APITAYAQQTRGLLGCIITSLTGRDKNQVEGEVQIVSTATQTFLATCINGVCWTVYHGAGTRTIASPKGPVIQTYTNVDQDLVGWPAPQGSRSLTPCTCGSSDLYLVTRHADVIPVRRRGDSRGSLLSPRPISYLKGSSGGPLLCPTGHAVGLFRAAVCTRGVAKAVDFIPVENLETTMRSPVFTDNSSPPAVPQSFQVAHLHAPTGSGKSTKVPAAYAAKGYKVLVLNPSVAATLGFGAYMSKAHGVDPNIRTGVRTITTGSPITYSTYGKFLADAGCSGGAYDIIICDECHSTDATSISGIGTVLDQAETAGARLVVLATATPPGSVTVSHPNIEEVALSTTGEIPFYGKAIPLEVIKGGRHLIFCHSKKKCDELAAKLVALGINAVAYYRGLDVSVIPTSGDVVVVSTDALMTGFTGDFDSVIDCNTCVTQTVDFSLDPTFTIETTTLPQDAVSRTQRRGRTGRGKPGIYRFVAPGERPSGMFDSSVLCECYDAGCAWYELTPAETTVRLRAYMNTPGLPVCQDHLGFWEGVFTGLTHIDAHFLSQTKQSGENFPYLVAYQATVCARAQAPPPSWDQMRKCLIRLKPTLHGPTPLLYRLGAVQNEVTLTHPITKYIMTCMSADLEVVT
In short: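 Full-length NS3 (E. coli-expressed at 2 nM or baculovirus-expressed at 3 nM) precomplexed with excess NS4A-2 peptide and preincubated with compound (top concentration 50 μM) for 10 min at room temperature. RETS1 substrate added; fluorescence read kinetically for 30 min (ex 335/em 495 nm). IC50 converted to Ki using Km 2.03 μM (E. coli) or 1.74 μM (baculovirus).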

[2] = test system: HCV sub-genomic replicon (1377/NS3-3') in HuH-7 hepatoma cells (GS4.3); assay: Quantitation by ELISA of NPTII in the HCV sub-genomic replicon, GS4.3; type: cell-based, hepatitis C virus (HCV); conditions: GS4.3 cells, 72 h incubation, NPTII ELISA, read-out: Replicon EC50
In short: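 GS4.3 cells (HuH-7 carrying HCV 1377/NS3-3′ replicon) treated 72 h at 37 °C with compound at 3-fold dilutions from 10 μM to 56 pM final, 1% DMSO, without G418. NPTII in lysates quantified by ELISA (450 nm). Signal expressed as percent of DMSO control; EC50 by 4-parameter fit.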

Compound C=C[C@@H]1C[C@]1(NC(=O)[C@@H]1C[C@@H](OC(=O)N2Cc3cccc(F)c3C2)CN1C(=O)[C@@H](Nc1ccc(F)cc1)C(C)(C)C)C(=O)NS(=O)(=O)C1CC1 [Compound 37, [(3R,5S)-5-((1R,2S)-1-(cyclopropylsulfonylcarbamoyl)-2-vinylcyclopropylcarbamoyl)-1-((S)-2-(4-fluorophenylamino)-3,3-methylbutanoyl)pyrrolidin-3-yl]4-fluoroisoindoline-2-carboxylate] has an IC50 [1] of less than 100 nM and an EC50 ([2]; Hepatitis C virus, Huh-7) of less than 100 nM.

With CC[C@@H]1C[C@]1(NC(=O)[C@@H]1C[C@@H](OC(=O)N2Cc3cccc(F)c3C2)CN1C(=O)[C@@H](Nc1cccc(C(C)(C)C)c1)C(C)C)C(=O)NS(=O)(=O)C1CC1 [Compound 45, [(3R,5S)-1-((S)-2-(3-tert-butylphenylamino)-3-methylbutanoyl)-5-((1R,2R)-1-(cyclopropylsulfonylcarbamoyl)-2-ethylcyclopropylcarbamoyl)pyrrolidin-3-yl]4-fluoroisoindoline-2-carboxylate] the IC50 [1] was less than 100 nM and the EC50 ([2]; Hepatitis C virus, Huh-7) was less than 100 nM.

In the case of CC[C@@H]1C[C@]1(NC(=O)[C@@H]1C[C@@H](OC(=O)N2Cc3cccc(Cl)c3C2)CN1C(=O)[C@@H](Nc1cccc(N2CCOCC2)c1)C(C)(C)C)C(=O)NS(=O)(=O)C1CC1 [Compound 75], the IC50 [1] is reported as less than 100 nM and the EC50 ([2]; Hepatitis C virus, Huh-7) is reported as less than 100 nM.

Work on CC[C@@H]1C[C@]1(NC(=O)[C@@H]1C[C@@H](Oc2nc3ccccc3s2)CN1C(=O)[C@@H](Nc1cccc(C(F)(F)F)c1)C(C)(C)C)C(=O)NS(=O)(=O)C1CC1 [Compound 69] yielded an IC50 [1] of less than 100 nM and an EC50 ([2]; Hepatitis C virus, Huh-7) of less than 100 nM.

With CC[C@@H]1C[C@]1(NC(=O)[C@@H]1C[C@@H](OC(=O)N2Cc3cccc(F)c3C2)CN1C(=O)[C@@H](Nc1ccc(F)c(C(F)(F)F)c1)C(C)C)C(=O)NS(=O)(=O)C1CC1 [Compound 52, [(3R,5S)-5-((1R,2R)-1-(cyclopropylsulfonylcarbamoyl)-2-ethylcyclopropylcarbamoyl)-1-((S)-2-(4-fluoro-3-(trifluoromethyl)phenylamino)-3-methylbutanoyl)pyrrolidin-3-yl]4-fluoroisoindoline-2-carboxylate] the IC50 [1] was less than 100 nM and the EC50 ([2]; Hepatitis C virus, Huh-7) was less than 100 nM.

For CC[C@@H]1C[C@]1(NC(=O)[C@@H]1C[C@@H](OC(=O)N2Cc3cccc(F)c3C2)CN1C(=O)[C@@H](Nc1cncc(C(F)(F)F)c1)C(C)C)C(=O)NS(=O)(=O)C1CC1 [Compound 48, [(3R,5S)-5-((1R,2R)-1-(cyclopropylsulfonylcarbamoyl)-2-ethylcyclopropylcarbamoyl)-1-((S)-3-methyl-2-(5-(trifluoromethyl)pyridin-3-ylamino)butanoyl)pyrrolidin-3-yl]4-fluoroisoindoline-2-carboxylate], the IC50 [1] was less than 100 nM and the EC50 ([2]; Hepatitis C virus, Huh-7) was 100 to 1000 nM.

In the case of C=C[C@@H]1C[C@]1(NC(=O)[C@@H]1C[C@@H](OC(=O)N2Cc3cccc(F)c3C2)CN1C(=O)[C@@H](Nc1cccc(C(F)(F)F)c1)C(C)C)C(=O)NS(=O)(=O)C1CC1 [Compound 42, [(3R,5S)-5-((1R,2S)-1-(cyclopropylsulfonylcarbamoyl)-2-vinylcyclopropylcarbamoyl)-1-((S)-3-methyl-2-(3-(trifluoromethyl)phenylamino)butanoyl)pyrrolidin-3-yl]4-fluoroisoindoline-2-carboxylate], the IC50 [1] is reported as less than 100 nM and the EC50 ([2]; Hepatitis C virus, Huh-7) is reported as less than 100 nM.

In the case of “[(3R,5S)-5-(((1R,2R)-1-(Cyclopropylsulfonylcarbamoyl)-2-ethylcyclopropyl)carbamoyl)-1-((S)-2-(5-isopropylthiazol-2-ylamino)-3-methylbutanoyl)pyrrolidin-3-yl]4-chloroisoindoline-2-carboxylate [Compound 67]”, the IC50 [1] is reported as less than 100 nM and the EC50 [2] is reported as less than 100 nM.

CC(C)(C)[C@H](Nc1cccc(C(F)(F)F)c1)C(=O)N1C[C@H](OC(=O)N2Cc3cccc(Cl)c3C2)C[C@H]1C(=O)N[C@]1(C(=O)NS(=O)(=O)C2CC2)C[C@H]1C1CC1 [Compound 60, [(3R,5S)-5-((1R,2S)-1-(cyclopropylsulfonylcarbamoyl)-2-cyclopropylcyclopropylcarbamoyl)-1-((S)-3,3-dimethyl-2-(3-(trifluoromethyl)phenylamino)-butanoyl)pyrrolidin-3-yl]4-chloroisoindoline-2-carboxylate] was tested, and the IC50 [1] was less than 100 nM and the EC50 ([2]; Hepatitis C virus, Huh-7) was less than 100 nM.

Compound CC[C@@H]1C[C@]1(NC(=O)[C@@H]1C[C@@H](Oc2nc3ccccc3s2)CN1C(=O)[C@@H](Nc1cncc(C(F)(F)F)c1)C(C)(C)C)C(=O)NS(=O)(=O)C1CC1 [Compound 70] has an IC50 [1] of less than 100 nM and an EC50 ([2]; Hepatitis C virus, Huh-7) of less than 100 nM.

C=C[C@@H]1C[C@]1(NC(=O)[C@@H]1C[C@@H](OC(=O)N2Cc3cccc(F)c3C2)CN1C(=O)[C@@H](Nc1ccc(F)cc1)C(C)C)C(=O)NS(=O)(=O)C1CC1 [Compound 33, (3R,5S)-5-((1R,2S)-1-(cyclopropylsulfonylcarbamoyl)-2-vinylcyclopropylcarbamoyl)-1-((S)-2-(4-fluorophenylamino)-3-methylbutanoyl)pyrrolidin-3-yl 4-fluoroisoindoline-2-carboxylate] showed an IC50 [1] of less than 100 nM and an EC50 ([2]; Hepatitis C virus, Huh-7) of 100 to 1000 nM.

With CC[C@@H]1C[C@]1(NC(=O)[C@@H]1C[C@@H](OC(=O)N2Cc3cccc(Cl)c3C2)CN1C(=O)[C@@H](Nc1cccc(C(F)(F)F)c1)C(C)(C)C)C(=O)NOCC1CC1 [Compound 72] the IC50 [1] was 100 to 1000 nM and the EC50 ([2]; Hepatitis C virus, Huh-7) was 100 to 1000 nM.

CC[C@@H]1CC1(NC(=O)[C@@H]1C[C@@H](OC(=O)N2Cc3cccc(Cl)c3C2)CN1C(=O)[C@@H](Nc1cccnc1)C(C)(C)C)C(=O)NS(=O)(=O)C1CC1 (stereo partly drawn) [Compound 74] gave an IC50 [1] of less than 100 nM and an EC50 ([2]; Hepatitis C virus, Huh-7) of less than 100 nM.

“[(3R,5S)-5-(((1R,2R)-1-(Cyclopropylsulfonylcarbamoyl)-2-ethylcyclopropyl)carbamoyl)-1-((S)-2-cyclohexyl-2-(5-ethylthiazol-2-ylamino)acetyl)pyrrolidin-3-yl]4-chloroisoindoline-2-carboxylate [Compound 64]” was tested, and the IC50 [1] was less than 100 nM and the EC50 [2] was less than 100 nM.

In the case of C=C[C@@H]1C[C@]1(NC(=O)[C@@H]1C[C@@H](OC(=O)N2Cc3cccc(F)c3C2)CN1C(=O)[C@@H](Nc1cncc(C(F)(F)F)c1)C(C)C)C(=O)NS(=O)(=O)C1CC1 [Compound 44, [(3R,5S)-5-((1R,2S)-1-(cyclopropylsulfonylcarbamoyl)-2-vinylcyclopropylcarbamoyl)-1-((S)-3-methyl-2-(5-(trifluoromethyl)pyridin-3-ylamino)butanoyl)pyrrolidin-3-yl]4-fluoroisoindoline-2-carboxylate], the IC50 [1] is reported as less than 100 nM and the EC50 ([2]; Hepatitis C virus, Huh-7) is reported as 100 to 1000 nM.

In the case of C=C[C@@H]1C[C@]1(NC(=O)[C@@H]1C[C@@H](OC(=O)N2Cc3cccc(Cl)c3C2)CN1C(=O)[C@@H](Nc1cccc(C(C)(C)C)c1)C(C)C)C(=O)NS(=O)(=O)C1CC1 [Compound 41, [(3R,5S)-1-((S)-2-(3-tert-butylphenylamino)-3-methylbutanoyl)-5-((1R,2S)-1-(cyclopropylsulfonylcarbamoyl)-2-vinylcyclopropylcarbamoyl)pyrrolidin-3-yl]4-chloroisoindoline-2-carboxylate], the IC50 [1] is reported as less than 100 nM and the EC50 ([2]; Hepatitis C virus, Huh-7) is reported as less than 100 nM.

Work on “[(3R,5S)-5-(((1R,2R)-1-(Cyclopropylsulfonylcarbamoyl)-2-ethylcyclopropyl)carbamoyl)-1-((S)-2-(5-ethylthiazol-2-ylamino)-3,3-dimethylbutanoyl)pyrrolidin-3-yl]4-chloroisoindoline-2-carboxylate [Compound 66]” yielded an IC50 [1] of less than 100 nM and an EC50 [2] of less than 100 nM.

Work on “[(3R,5S)-5-((1R,2R)-1-(cyclopropylsulfonylcarbamoyl)-2-ethylcyclopropylcarbamoyl)-1-((S)-3,3-dimethyl-2-(3-(trifluoromethyl)phenylamino)butanoyl)pyrrolidin-3-yl]4-chloroisoindoline-2-carboxylate [Compound 55]” yielded an IC50 [1] of less than 100 nM and an EC50 [2] of less than 100 nM.

“[(3R,5S)-5-(((1R,2S)-1-(cyclopropylsulfonylcarbamoyl)-2-vinylcyclopropyl)carbamoyl)-1-((S)-2-cyclohexyl-2-(5-ethylthiazol-2-ylamino)acetyl)pyrrolidin-3-yl]4-chloroisoindoline-2-carboxylate [Compound 62]” showed an IC50 [1] of less than 100 nM and an EC50 [2] of less than 100 nM.

C=C[C@@H]1C[C@]1(NC(=O)C1Cc2cc(Oc3cccc(Cl)c3)ccc2CN1C(=O)[C@@H](Nc1ccc(F)cc1)C(C)(C)C)C(=O)NS(=O)(=O)C1CC1 (stereo partly drawn) [Compound 10, 6-(3-chlorophenoxy)-N-((1R,2S)-1-(cyclopropylsulfonylcarbamoyl)-2-vinylcyclopropyl)-2-((S)-2-(4-fluorophenylamino)-3,3-dimethylbutanoyl)-1,2,3,4-tetrahydroisoquinoline-3-carboxamide] gave an IC50 [1] of less than 100 nM and an EC50 ([2]; Hepatitis C virus, Huh-7) of 1000 to 10000 nM.

With CC[C@@H]1C[C@]1(NC(=O)[C@@H]1C[C@@H](OC(=O)N2Cc3cccc(F)c3C2)CN1C(=O)[C@@H](Nc1cccc(C(F)(F)F)c1)C(C)(C)C)C(=O)NS(=O)(=O)C1CC1 [Compound 56, [(3R,5S)-5-((1R,2R)-1-(cyclopropylsulfonylcarbamoyl)-2-ethylcyclopropylcarbamoyl)-1-((S)-3,3-dimethyl-2-(3-(trifluoromethyl)phenylamino)butanoyl)pyrrolidin-3-yl]4-fluoroisoindoline-2-carboxylate] the IC50 [1] was less than 100 nM and the EC50 ([2]; Hepatitis C virus, Huh-7) was less than 100 nM.
